These results are taken from article PMC9338942, “(+)-Usnic acid and its salts, inhibitors of SARS‐CoV‐2, identified by using in silico methods and in vitro assay” (Scientific Reports, 2022).

In one series the test system is SARS-CoV. The note with it: mice, 30 mg/kg; cited from earlier work.
In series [1] the test system is COVID-19. More on the design: method as in PMID 33903855. The note with it: cited from earlier work.
The subject of another series is SARS-CoV-2. The settings on record: read-out: IC50, in vitro antiviral efficacy against SARS-CoV-2; cited from earlier work.
In series [2] the test system is SARS-CoV-2 (βCoV/Korea/KCDC/2020). Description: microbe, parasite or virus in culture. Type of series: cell-based. The note with it: for inhibition at 10 µM: single concentration 10 μM, read-out: Inhibition of infection (%); for IC50: vero cells, immunofluorescence.
In another series the test system is vero cells. The note with it: for Cell number to mock (%): single concentration 10 μM; for CC50: vero cells.
In another series the test system is SARS-CoV-2 pseudovirions. The note with it: at 30 μM; cited from earlier work.
The next series is described as follows: in vitro. The settings on record: African green monkey.
Series [3] relates to COVID-19. Further details: method as in PMID 34480861. The settings on record: phase 3 clinical trial; cited from earlier work.
Where [4] appears, read: Severe acute respiratory syndrome coronavirus 2.
Setting [5] is: assay with original SARS-CoV-2 strain.
The mark [6] stands for this setting: Severe acute respiratory syndrome coronavirus 2, original SARS-CoV-2 strain.
The mark [7] stands for this setting: CC50, vero cells, assay with Alpha var (B.1.1.7).
The mark [8] stands for this setting: CC50, vero cells, assay with Beta var (B.1.351).
[9] abbreviates: CC50, vero cells, assay with Delta var (B.1.617.2).
The mark [10] stands for this setting: CC50, vero cells, assay with original SARS-CoV-2 strain.
Where [11] appears, read: assay with Delta var (B.1.617.2).

Like-named read-outs stand apart in the source and are kept apart here. Some results are limits rather than exact numbers.

In the case of `CN(C)C(=O)COC(=O)Cc1ccc(OC(=O)c2ccc(NC(=N)N)cc2)cc1` [camostat mesilate], the survival level entry with SARS-CoV is reported as “above 60%”. The “efficacy in clinical trials for the treatment of COVID-19” value in the series with COVID-19 [1] is given as “did not show any particular efficacy”.
A word on the IC50: it is the midpoint of a concentration-inhibition curve. Regarding `Cc1ccc(N)cc1C(=O)N[C@H](C)c1cccc2ccccc12` [GRL0617], in the series with SARS-CoV-2, the IC50 is 2100 nM.
What is called inhibition is the change of the read-out against control, counted positive when it falls. As for `CO[C@H]1[C@H](O)[C@@H](O)[C@H](n2c3c(Cl)cccc3c3c4c(c5c6cccc(Cl)c6[nH]c5c32)C(=O)NC4=O)O[C@@H]1CO` [Rebeccamycin, 1,11-Dichloro-12,13-dihydro-12-(4-O-methyl-β-D-glucopyranosyl)-5H-indolo[2,3-a]pyrrolo[3,4-c]carbazole-5,7(6H)-dione], in series [2] (setting [4]), the inhibition at 10 µM is 10.6%. The “Cell number to mock (%)” value in the series with vero cells is listed as 72.32%.
For `CCOC(=O)[C@H]1O[C@@H]1C(=O)N[C@@H](CC(C)C)C(=O)NCCC(C)C` [Aloxistatin], in the series on SARS-CoV-2 pseudovirions, the “reduction of cell entry of SARS-CoV-2 pseudovirions” value is given as 92.5%.
The compound `CC(=O)C1=C(O)[C@]2(C)C(=CC1=O)Oc1c(C(C)=O)c(O)c(C)c(O)c12` [KU, potassium usnate] yielded an IC50 in series [2] (original SARS-CoV-2 strain) of 7.57 µM. Besides, the CC50 in the series on vero cells (setting [5]) was above 50 µM.
Turning to `Cc1cccc(C)c1OCC(=O)N[C@@H](Cc1ccccc1)[C@@H](O)C[C@H](Cc1ccccc1)NC(=O)[C@H](C(C)C)N1CCCNC1=O` [lopinavir], in series [2], the “SI (selectivity index)” value was 4.24. In series [2] (setting [6]), this compound returned an IC50 of 11.8 µM. Besides, the CC50 in the series “in vitro” (setting [7]) was above 50 µM; in “in vitro” (setting [8]) it was above 50 µM; in “in vitro” (setting [9]), above 50 µM; in “in vitro” (setting [10]) it was above 150 µM.
Turning to `CCS(=O)(=O)N1CC(CC#N)(n2cc(-c3ncnc4[nH]ccc34)cn2)C1` [barcitinib, Barcitinib], the “reduction of 28-day mortality rate compared to placebo” value in the series with COVID-19 [3] is 38.2%.
With `CC(=O)C1=C(O)C=C2Oc3c(C(C)=O)c(O)c(C)c(O)c3[C@]2(C)C1=O` [NaU, sodium usnate], in series [2] (original SARS-CoV-2 strain), 5.33 µM corresponded to half-maximal inhibition (IC50). In addition, the CC50 in the series with vero cells (setting [5]) was above 50 µM.
For the compound `C[C@]12C[C@@]34C=CC(=O)[C@@](C)(CCC(=O)Nc5c(O)ccc(C(=O)O)c5O)[C@@H]3[C@H](C[C@@H]1C4)O2` [Platensimycin, 3-[[3-[(1S,3S,4S,5aS,9S,9aR)-1,4,5,8,9,9a-Hexahydro-3,9-dimethyl-8-oxo-3H-1,4:3,5a-dimethano-2-benzoxepin-9-yl]-1-oxopropyl]amino]-2,4-dihydroxybenzoic acid], the inhibition at 10 µM in series [2] (setting [4]) was found to be 3.16%. Besides, in the series on vero cells, the “Cell number to mock (%)” value came to 109.23%.
On to `CCN(CC)CCCC(C)Nc1ccnc2cc(Cl)ccc12` (centres unmarked) [chloroquine], for which the IC50 in series [2] (setting [6]) was found to be 11.5 µM. Also, the CC50 in the series on vero cells (assay with Beta var (B.1.351)), with vero cells (setting [11]) and in the series “in vitro” was above 150 µM in each case.
Consider `COC1=CC(=O)[C@@]2(C)c3c(O)c(C)c(O)c(C(C)=O)c3O[C@@]2(OC)C1` [Mycousfuran A, (4aS,9bR)-6-acetyl-7,9-dihydroxy-3,4a-dimethoxy-8,9b-dimethyl-4H-dibenzofuran-1-one], for which, in series [2] (setting [4]), the inhibition at 10 µM was determined as 0.96%. Moreover, the “Cell number to mock (%)” value in the series with vero cells is recorded as 109.23%.
The compound `CCC(CC)COC(=O)[C@H](C)N[P@](=O)(OC[C@H]1O[C@@](C#N)(c2ccc3c(N)ncnn23)[C@H](O)[C@@H]1O)Oc1ccccc1` [remdesivir] had an IC50 in series [2] (setting [6]) of 7.42 µM. Further, the “SI (selectivity index)” value in series [2] (original SARS-CoV-2 strain) is on record as 6.74. Besides, the CC50 with vero cells (assay with Beta var (B.1.351)), with vero cells (setting [11]) and in “in vitro” was above 50 µM each time.
Consider `CC(=O)c1c(O)c(C)c(O)c2c1OC1=CC(=O)C(C(C)=O)C(=O)[C@@]12C` (single isomer, unassigned; (+)) [(+)-usnic acid], for which, in series [2], the “SI (selectivity index)” value amounted to 6.26. In addition, the IC50 in series [2] (setting [6]) was found to be 7.99 µM. For the same compound, the inhibition at 10 µM in series [2] (setting [4]) is 61.6%. Moreover, the “Cell number to mock (%)” value in the series with vero cells turned out to be 94.69%. The CC50 was 34.8 µM in “in vitro” (setting [7]), 32.4 µM in “in vitro” (setting [8]), above 50 µM in the series “in vitro” (setting [9]) and above 50 µM in “in vitro” (setting [10]).
